Assay results taken from patent US11066414B2, “Cot modulators and methods of use thereof” (Gilead Sciences, Inc., priority 2015, dated 2021).
Read-outs that look alike come from different tables or passages of the source.

How the values were obtained:
TNFα = assay: Cot Monocyte TNFα Cell Based Assay
Human Cot = Human Cot (Homo sapiens (Human), UniProt P41279); assay: High Throughput Cot Biochemical Assay
[1] = Homo sapiens, Monocyte, read-out: EC50 TNF, LPS-stimulated human monocytes, TNFα
[2] = IC50 HTRF, Cot HTRF (TR-FRET) biochemical assay
[3] = Homo sapiens, Monocyte, read-out: EC50 TNF, LPS-stimulated human monocytes, TNFα TR-FRET
[4] = IC50 HTRF, Cot HTRF (TR-FRET KinEASE) biochemical assay, 400 μM ATP
[5] = read-out: EC50 TNF, LPS-stimulated human monocytes, TNFα TR-FRET
[6] = read-out: IC50 HTRF, Cot HTRF (TR-FRET KinEASE) biochemical assay, 400 μM ATP

Sequence of Human Cot (P41279 30-397): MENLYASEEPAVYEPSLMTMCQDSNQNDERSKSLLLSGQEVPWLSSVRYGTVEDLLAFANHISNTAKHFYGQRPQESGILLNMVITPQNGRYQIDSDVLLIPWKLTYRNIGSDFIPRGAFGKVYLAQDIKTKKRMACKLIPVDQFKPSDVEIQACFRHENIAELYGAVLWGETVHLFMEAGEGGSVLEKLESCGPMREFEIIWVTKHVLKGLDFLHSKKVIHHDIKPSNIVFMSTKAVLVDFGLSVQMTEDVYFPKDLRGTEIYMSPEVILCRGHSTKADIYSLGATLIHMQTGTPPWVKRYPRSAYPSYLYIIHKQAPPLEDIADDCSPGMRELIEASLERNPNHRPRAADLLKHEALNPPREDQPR

Row | Compound | EC50 (TNFα; [1]) [µM] | IC50 (Human Cot; [2]) [µM] | EC50 (TNFα; [3]) [µM] | IC50 (Human Cot; [4]) [µM] | other results
1 | Cc1nc(F)ccc1[C@H](Nc1cc(Cl)c2ncc(C#N)c(NCC3C(C)(C)C3(C)C)c2c1)c1cn(C2(C(F)F)CC2)nn1 [Example 733, (S)-8-chloro-6-(((1-(1-(difluoromethyl)cyclopropyl)-1H-1,2,3-triazol-4-yl)(6-fluoro-2-methylpyridin-3-yl)methyl)amino)-4-(((2,2,3,3-tetramethylcyclopropyl)methyl)-amino)quinoline-3-carbonitrile] | 0.835 | 0.042 |  |  | 
2 | COc1ncccc1[C@H](Nc1cc(C#N)c2ncc(C#N)c(NCC(C)(C)C)c2c1)c1cn(C2(C(F)(F)F)CC2)nn1 [Example 885, (S)-6-(((2-methoxypyridin-3-yl)(1-(1-(trifluoromethyl)cyclopropyl)-1H-1,2,3-triazol-4-yl)methyl)amino)-4-(neopentylamino)quinoline-3,8-dicarbonitrile] |  |  | 0.132 | 0.01 | 
3 | N#CCCC(Nc1c(C#N)cnc2c(Cl)cc(N[C@@H](c3cn(C4CC4)nn3)c3csc4c3CCN(C3COC3)C4)cc12)c1ccccc1 (stereo partly drawn) [Example 83, 8-chloro-4-((3-cyano-1-phenylpropyl)amino)-6-(((RH 1-cyclopropyl-1H-1,2,3-triazol-4-yl)(6-(oxetan-3-yl)-4,5,6,7-tetrahydrothieno[2,3-c]pyridin-3-yl)methyl)amino)-quinoline-3-carbonitrile] |  |  |  |  | EC50 (TNFα; read-out: EC50 TNF, LPS-stimulated human monocytes, TNFα): 1 µM; IC50 (Human Cot; read-out: IC50 HTRF, Cot HTRF (TR-FRET) biochemical assay): 0.942 µM
4 | Cc1nc(F)ccc1[C@H](Nc1cc(C#N)c2ncc(C#N)c(NCC(C)(C)C)c2c1)c1nnn(C23CC(C2)C3)c1F [Example 954, (S)-6-(((1-(bicyclo[1.1.1]pentan-1-yl)-5-fluoro-1H-1,2,3-triazol-4-yl)(6-fluoro-2-methylpyridin-3-yl)methyl)amino)-4-(neopentylamino)quinoline-3,8-dicarbonitrile] |  |  | 0.016 | 0.007 | 
5 | CC(C)(C)N1CCC(n2cc([C@@H](Nc3cc(Cl)c4ncc(C#N)c(Nc5ccc(F)c(Cl)c5)c4c3)c3ccc4scnc4c3)nn2)CC1 [Example 62, (S)-6-((benzo[d]thiazol-5-yl(1-(1-(tert-butyl)piperidin-4-yl)-1H-1,2,3-triazol-4-yl)methyl)amino)-8-chloro-4-((3-chloro-4-fluorophenyl)amino)quinoline-3-carbonitrile] | 0.216 | 0.01 |  |  | 
6 | Cc1nc(F)ccc1[C@H](Nc1cc(Cl)c2ncc(C#N)c(NCC3(C(F)(F)F)CCC3)c2c1)c1cn(C2(C(F)F)CC2)nn1 [Example 731, (S)-8-chloro-6-(((1-(1-(difluoromethyl)cyclopropyl)-1H-1,2,3-triazol-4-yl)(6-fluoro-2-methylpyridin-3-yl)methyl)amino)-4-(((1-(trifluoromethyl)cyclobutyl)-methyl)amino)quinoline-3-carbonitrile] | 0.179 | 0.011 |  |  | 
7 | CC(C)(CNc1c(C#N)cnc2c(C#N)cc(N[C@H](c3cn(C4(C(F)F)CC4)nn3)c3cccc4c(=O)[nH]ccc34)cc12)C(F)(F)F [Example 842] |  |  |  |  | EC50 (TNFα; [5]): 0.563 µM; IC50 (Human Cot; [6]): 0.003 µM
8 | Cn1ccc2c([C@H](Nc3cc(C#N)c4ncc(C#N)c(NCC(C)(C)C)c4c3)c3cn(C4(C)COC4)nn3)cccc2c1=O [Example 853, (S)-6-(((2-methyl-1-oxo-1,2-dihydroisoquinolin-5-yl)(1-(3-methyloxetan-3-yl)-1H-1,2,3-triazol-4-yl)methyl)amino)-4-(neopentylamino)quinoline-3,8-dicarbonitrile] |  |  | 0.098 | 0.001 | 
9 | Cn1ccc2c([C@H](Nc3cc(C#N)c4ncc(C#N)c(NCC(C)(C)C)c4c3)c3cn(C(CF)CF)nn3)cccc2c1=O [Example 880, (S)-6-(((1-(l,3-difluoropropan-2-yl)-1H-1,2,3-triazol-4-yl)(2-methyl-1-oxo-1,2-dihydroisoquinolin-5-yl)methyl)amino)-4-(neopentylamino)quinoline-3,8-dicarbonitrile] |  |  |  |  | EC50 (TNFα; [5]): 0.08 µM; IC50 (Human Cot; [6]): 0.003 µM
